Data taken from patent US20110021776A1, “COMPOSITIONS FOR THE TREATMENT OF CENTRAL NERVOUS SYSTEM DISEASES AND DISORDERS” (MediProPharma, Inc., priority 2006, published 2011).
“And” between values parts separate entries of the source, which are not always exact repeats. Equal entries are not always repeated. Where two headings read alike, the source gives them in different places. Marks after values point to notes of the source that are not given here.

Key:
[1] = Plasma pharmacokinetics, single dose in rats; format: in vivo, Sprague-Dawley rats; settings: normal rats; for MRT inf: read-out: MRT0-inf; for MRT last: read-out: MRT0-last; for Vd: read-out: Vdss
Protocol: (§1) (IV) Pharmacokinetic Studies
(§2) The pharmacokinetic studies in Sprague-Dawley rats were performed using the protocols developed by WuXi AppTec (St. Paul, Minn., USA, and Shanghai, China. http://www.apptecls.com/).

[2] = Brain/plasma pharmacokinetics, single i.v. bolus in rats; format: in vivo, Sprague-Dawley rats; settings: 10 mg/kg bolus i.v., normal rats; for Kp / concentration at 0.25 h / concentration at 1 h / concentration at 4 h: intravenous; for Kp: read-out: BAUC/PAUC Ratio; for AUC(0-t): read-out: AUC0-t of Plasma
Protocol: as §1, §2
The brain exposure of the compound of Example 1 is about […] higher than that required for inhibition of DYRK1A, with a Kd and IC50 at about 1 uM, or 280 ng/mL.

human DYRK1A [3] = target: T1, human DYRK1A (Homo sapiens, UniProt Q13627); test: Human DYRK1A kinase functional assay (CEREP, LANCE detection); format: biochemical; set-up: CEREP (France), contract assay provider
Protocol: (II) Human DYRK1A Kinase Functional Assay and IC50 Measurements.
Compound profiling in a human DYRK1A kinase functional assay was performed by CEREP (France). The effects of compounds on the activity of human DYRK1A were evaluated and quantified by measuring the phosphorylation of the substrate Ulight-CFFKNIVTPRTPPPSQGK-amide (MBP) using a human recombinant enzyme and the LANCE® detection method, as described by Himpel et al, J. Biol. Chem., 275: 2431 (2000). The inhibitory activity of the compounds was expressed as a percent inhibition of the control kinase activity. Activities of the compounds at 50% or higher inhibition were selected for IC50 determination. Compounds were tested at 6 concentrations in duplicate for IC50 determination. The standard inhibitory reference compound was staurosporine, which was tested in each experiment at 8 concentrations to obtain an inhibition curve from which its IC50 value was calculated.
In certain embodiments, compounds have a low IC50 value in the DYRK1A kinase functional assay. […] The human DYRK1A kinase functional assay has been used to test the compounds of the Examples disclosed.

human DYRK1A [4] = target: T1, human DYRK1A; test: Human DYRK1A kinase competitive binding assay (Ambit Biosciences); set-up: Ambit Biosciences (San Diego, Calif., USA), contract assay provider
Protocol: (I) Human DYRK1A Kinase Binding Assay and Binding Constant Measurements. Human DYRK1A kinase profiles in a competitive binding assay were performed by Ambit Biosciences (San Diego, Calif., USA). Activity was recorded via a competition binding assay of human DYRK1A kinase that was fused to a proprietary tag. Measurements of the amount of DYRK1A kinase bound to an immobilized, active-site directed ligand in the presence and absence of the test compound provided a percentage of DMSO control for binding of ligand. Activities between 1% and 10% were selected for Kd determination. Dendrogram representations were generated by an in-house visualization tool designated as PhyloChem. In certain embodiments, compounds have a low Kd value in the DYRK1A kinase binding assay. […] The human DYRK1A kinase binding assay has been used to test the compounds of the Examples disclosed.

[5] = Sprague-Dawley, rat, iv, i.v. 2 mg/kg, plasma
[6] = Sprague-Dawley, rat, iv, i.v. 10 mg/kg, plasma
[7] = Sprague-Dawley, rat, plasma, iv, i.v. 2 mg/kg
[8] = Sprague-Dawley, rat, plasma, iv, i.v. 10 mg/kg
[9] = Sprague-Dawley, rat, po, p.o. 10 mg/kg, plasma

`Cc1nc2c(c3c1[nH]c1ccccc13)C(=O)CC(C)(C)C2` [Example 1, 3,3,6-trimethyl-2,3,4,7-tetrahydroindolo[2,3-c]quinolin-1-one] gave an AUC(0-inf) [1, 5] of 316 ng·h/mL, an AUC(0-t) [1, 5] of 312 ng·h/mL and a half-life [1, 5] of 22.2 min. For the same molecule, the MRT inf [1, 5] was 21.9 min, the MRT last [1, 5] was 19.9 min and the AUC(0-inf) [1, 6] was 2350 ng·h/mL. It also gave an AUC(0-t) [1, 6] of 2280 ng·h/mL, a half-life [1, 6] of 45.9 min and an MRT inf [1, 6] of 53.6 min. The MRT last [1, 6] was 46.4 min, the clearance [1, 7] was 106 mL/min/kg and the Vd [1, 7] was 2.31 L/kg. For the same molecule, the clearance [1, 8] was 71.1 mL/min/kg, the Vd [1, 8] was 3.81 L/kg and the bioavailability ([1]; Sprague-Dawley, rat, plasma, po, p.o. 10 mg/kg, calculated using AUC0-inf, read-out: F (absolute oral bioavailability)) was 34%. The AUC(0-inf) [1, 9] was 544 ng·h/mL, the AUC(0-t) [1, 9] was 541 ng·h/mL and the Cmax [1, 9] was 1860 ng/mL. It also gave a Tmax [1, 9] of 15 min, a half-life [1, 9] of 49.3 min and an MRT inf [1, 9] of 39.3 min. For the same molecule, the MRT last [1, 9] was 36.6 min, the AUCExtra ([1]; i.v. 2 mg/kg, plasma) was 1.49% and the Co ([1]; i.v. 2 mg/kg, plasma) was 1665 ng/mL. For the same molecule, the CL0-last ([1]; i.v. 10 mg/kg) was 73.1 mL/min/kg, the Vdss0-last ([1]; i.v. 10 mg/kg) was 3.39 L/kg and the Co ([1]; i.v. 10 mg/kg, plasma) was 4100 ng/mL. For the same molecule, the AUCExtra ([1]; p.o. 10 mg/kg, plasma) was 0.672%, the “AUC0-t of Brain” value ([2]; t = 0.25 h) was 2409 ng·h/g and the “AUC0-t of Brain” value ([2]; t = 1 h) was 4727 ng·h/g. For the same molecule, the “AUC0-t of Brain” value ([2]; t = 4 h) was 5924 ng·h/g, the “AUC0-t of Brain” value ([2]; t = 8 h, the data is the value of AUC(inf)) was 6020^b ng · h/g and the “AUC0-t of Brain” value ([2]; t = 24 h, the data is the value of AUC(inf)) was 6020^b ng · h/g. For the same molecule, the Kp ([2]; Sprague-Dawley, rat, brain and plasma, 10 mg/kg, t = 0.25 h, BrainAUC(0-t)/PlasmaAUC(0-t)) was 3.04, the Kp ([2]; Sprague-Dawley, rat, brain and plasma, 10 mg/kg, t = 1 h, BrainAUC(0-t)/PlasmaAUC(0-t)) was 2.81 and the Kp at 0.25 h ([2]; Sprague-Dawley, rat, brain and plasma, iv, 10 mg/kg, time 0.25 h, read-out: Brain/Plasma Ratio) was 2.89. The Kp at 1 h ([2]; Sprague-Dawley, rat, brain and plasma, iv, 10 mg/kg, time 1 h, read-out: Brain/Plasma Ratio) was 2.17, the Kp ([2]; Sprague-Dawley, rat, brain, 10 mg/kg, t = 4 h, BrainAUC(0-t)/PlasmaAUC(0-t)) was 2.6 and the Kp ([2]; Sprague-Dawley, rat, brain, 10 mg/kg, t = 8 h) was 2.56. The Kp ([2]; Sprague-Dawley, rat, brain, 10 mg/kg, t = 24 h) was 2.56, the concentration at 0.25 h ([2]; Sprague-Dawley, rat, brain, time 0.25 h, read-out: Mean concentration in brain) was 6900 ng/mL and the concentration at 1 h ([2]; Sprague-Dawley, rat, brain, time 1 h, read-out: Mean concentration in brain) was 1030 ng/mL. For the same molecule, the concentration at 4 h ([2]; Sprague-Dawley, rat, brain, time 4 h, read-out: Mean concentration in brain) was 99.4 ng/mL, the Kp at 4 h ([2]; Sprague-Dawley, rat, brain, iv, 10 mg/kg, time 4 h, read-out: Brain/Plasma Ratio) was 1.69 and the concentration at 0.25 h ([2]; Sprague-Dawley, rat, plasma, time 0.25 h, read-out: Mean concentration in plasma) was 2390 ng/mL. It also gave a concentration at 1 h ([2]; Sprague-Dawley, rat, plasma, time 1 h, read-out: Mean concentration in plasma) of 476 ng/mL, a concentration at 4 h ([2]; Sprague-Dawley, rat, plasma, time 4 h, read-out: Mean concentration in plasma) of 58.7 ng/mL and an AUC(0-t) ([2]; Sprague-Dawley, rat, plasma, iv, 10 mg/kg, t = 0.25 h) of 792 ng·h/mL. The AUC(0-t) ([2]; Sprague-Dawley, rat, plasma, iv, 10 mg/kg, t = 1 h) was 1680 ng·h/mL, the AUC(0-t) ([2]; Sprague-Dawley, rat, plasma, iv, 10 mg/kg, t = 4 h) was 2280 ng·h/mL and the AUC(0-t) ([2]; Sprague-Dawley, rat, plasma, iv, 10 mg/kg, t = 8 h, the data is the value of AUC(inf)) was 2350 ng·h/mL. The AUC(0-t) ([2]; Sprague-Dawley, rat, plasma, iv, 10 mg/kg, t = 24 h, the data is the value of AUC(inf)) was 2350 ng·h/mL, the melting point was 178.3 to 180.7 °C and the IC50 (human DYRK1A [3]) was < 2 µM and ~1 µM. The Kd (human DYRK1A [4]) was < 10 µM and < 1 µM and ~1 µM.

For `Cc1nc2c(c3c1[nH]c1cccc(F)c13)C(=O)CC(C)(C)C2` [Example 2, 11-fluoro-3,3,6-trimethyl-2,3,4,7-tetrahydroindolo[2,3-c]quinolin-1-one], the IC50 (human DYRK1A [3]) was less than 5 µM and the Kd (human DYRK1A [4]) was less than 1 µM.

With `Cc1nc2c(c3c1[nH]c1ccc(F)cc13)C(=O)CC(C)(C)C2` [Example 4, 10-fluoro-3,3,6-trimethyl-2,3,4,7-tetrahydroindolo[2,3-c]quinolin-1-one] the IC50 (human DYRK1A [3]) was less than 2 µM and the Kd (human DYRK1A [4]) was less than 1 µM.

With `COc1ccc2[nH]c3c(C)nc4c(c3c2c1)C(=O)CC(C)(C)C4` [Example 6, 10-methoxy-3,3,6-trimethyl-2,3,4,7-tetrahydroindolo[2,3-c]quinolin-1-one] the Kd (human DYRK1A [4]) was less than 5 µM.

With `Cc1nc2c(c3c1[nH]c1ccccc13)C(=O)CC(C)C2` (centres unmarked) [Example 8, 3,6-dimethyl-2,3,4,7-tetrahydroindolo[2,3-c]quinolin-1-one] the IC50 (human DYRK1A [3]) was less than 5 µM.

For `CCc1nc2c(c3c1[nH]c1ccccc13)C(=O)CC(C)(C)C2` [Example 10, 6-ethyl-3,3-dimethyl-2,3,4,7-tetrahydro-indolo[2,3-c]quinolin-1-one], the IC50 (human DYRK1A [3]) was less than 5 µM.

`CC1(C)CC(=O)c2c(ncc3[nH]c4ccccc4c23)C1` [Example 11, 3,3-dimethyl-2,3,4,7-tetrahydroindolo[2,3-c]quinolin-1-one] gave an IC50 (human DYRK1A [3]) of less than 5 µM.

`Cc1nc2c(c3c1[nH]c1ccccc13)C(=O)CC1(CCCCC1)C2` [Example 12, 6-methyl-3′H-spirocyclohexane-2,3,4,7-tetrahydroindolo[2,3-c]quinolin-1-one] showed an IC50 (human DYRK1A [3]) of less than 10 µM.

Molecule `Cc1nc2c(c3c1[nH]c1ccc(Cl)cc13)C(=O)CC(C)(C)C2` [Example 13, 10-chloro-3,3,6-trimethyl-2,3,4,7-tetrahydroindolo[2,3-c]quinolin-1-one] has an IC50 (human DYRK1A [3]) of less than 5 µM.

For `COc1ccc2[nH]c3cnc4c(c3c2c1)C(=O)CC(C)(C)C4` [Example 14, 10-methoxy-3,3-dimethyl-2,3,4,7-tetrahydroindolo[2,3-c]quinolin-1-one], the IC50 (human DYRK1A [3]) was less than 10 µM.

`CCc1nc2c(c3c1[nH]c1cccc(F)c13)C(=O)CC(C)(C)C2` [Example 15, 11-fluoro-6-ethyl-3,3,-dimethyl-2,3,4,7-tetrahydroindolo[2,3-c]quinolin-1-one] gave an IC50 (human DYRK1A [3]) of less than 5 µM.

With `CCc1nc2c(c3c1[nH]c1ccc(F)cc13)C(=O)CC(C)(C)C2` [Example 16, 10-fluoro-6-ethyl-3,3,-dimethyl-2,3,4,7-tetrahydroindolo[2,3-c]quinolin-1-one] the IC50 (human DYRK1A [3]) was less than 2 µM.
